Patent publication US8067189B2, “Methods for determining sensitivity to vascular endothelial growth factor receptor-2 modulators by measuring the level of collagen type IV” (Bristol-Myers Squibb Company, priority 2005, dated 2011)

Tested on: Collagen type IV
Experiment: Collagen type IV ELISA of blood (plasma) from cancer patients, clinical study CA182-002
Assay type: in vivo, human
Method: Blood samples (plasma) for ELISA analysis were obtained from Bristol-Myers Squibb Co. sponsored clinical study CA182-002, which is a phase I dose escalation study to determine the safety, pharmacokinetic, and pharmacodynamics of the example VEGFR-2 inhibitor in patients with advanced or metastatic solid tumors. Blood samples were drawn from patients at screening, pre-dose, and post-dose at 4 hours, Day 1, Day 8, Day 26, and end of treatment. Approximately 60 ml of blood was collected for the protocol specific sampling. Detailed instructions regarding the collection, processing, labeling, handling, storage, and shipment of the specimens were provided in the CA182-002 Laboratory Manual.
An ELISA method for the detection and measurement of Collagen Type IV and VE-Cadherin on human plasma or any biological sample where the proteins must be detected and measured is described. For collagen type IV ELISA, the kit was provided by Kamiya biomedical company (cat no. KT-035) and the principle method of the assay, a solid phase one-step sandwich ELISA, was as follows. Collagen Type IV in the sample was bound simultaneously by a solid phase monoclonal antibody and a monoclonal antibody-enzyme conjugate, each directed at a different antigenic site. […] After removing unbound enzyme-labeled antibody and samples, the plate was incubated with the enzyme substrate 3,3′,5,5′-tetramethylhylbenzidine (TMB). The resultant color development was directly proportional to the amount of collagen IV in the sample. The reaction was terminated by addition of acid and absorbance was measured at 450 nm. A standard curve was prepared from collagen type IV standard dilutions and collagen type IV samples concentration determined. For VE-Cadherin ELISA, the kit provided by Bender Medsystems (cat no. BMS253) was used and the principle method of the assay was as follows. An anti-VE-cadherin coating antibody was adsorbed onto the microwells. VE-cadherin present in the sample bound to antibodies adsorbed to the microwells; a biotin conjugated anti-VE-cadherin antibody was added and bound to VE-cadherin captured by the first antibody. Following incubation, unbound biotin conjugated anti-VE-cadherin was removed during a wash step. Streptavidin-HRP was added and bound to the biotin conjugated anti-VE-cadherin. Following incubation, unbound streptavidin-HRP was removed during a wash step and substrate solution reactive with HRP was added to the wells. A colored product was formed in proportion to the amount of VE-cadherin present in the sample. The reaction was terminated by addition of acid and absorbance was measured at 450 nm. A standard curve was prepared from VE-cadherin standard dilutions and VE-cadherin samples concentration determined.
Based on the pre-clinical studies, the Collagen type IV ELISA kit was examined as a potential molecular assay to monitor response and validate its expression on specimens obtained from cancer patients who received the example VEGFR-2 inhibitor. Biological samples from twelve cancer patients treated with the example VEGFR-2 inhibitor in protocol CA182002, which is a single agent dose escalation study, three patients each at 180 mg/day, 320 mg/day, 600 mg/day and 800 mg/day, were examined. Collagen Type IV blood levels were determined by an ELISA based assay for each patient at Day 0 (before therapy) and at Day 26 (after treatment). Collagen type IV levels increased on average by 24% at Day 26 in the 180 mg/day cohort; it increased on average only by 7% at Day 26 in the 320 mg/day cohort. In the 600 mg/day cohort, it was reduced on average by 26% at Day 26. In the 800 mg/day cohort, it was reduced only marginally, when compared to the 600 mg/day cohort, by 29% at Day 26.
Collagen type IV ELISA assays were also examined to see if collagen type IV was useful as a biomarker for clinical response to the example VEGFR-2 inhibitor. […] The reduction in collagen type IV blood levels correlated with clinical evidence of anti-tumor activity. […]

Cc1cc2c(F)c(Oc3ncnn4cc(OC[C@@H](C)OC(=O)[C@H](C)N)c(C)c34)ccc2[nH]1 [example VEGFR-2 inhibitor, [(1R),2S]-2-Aminopropionic acid 2-[4-(4-fluoro-2-methyl-1H-indol-5-yloxy)-5-methylpyrrolo[2,1-f][1,2,4]triazin-6-yloxy]-1-methylethyl ester]
Collagen type IV levels increased on average by (180 mg/day cohort, three patients, Day 26 vs Day 0): 24%
Collagen type IV levels increased on average by (320 mg/day cohort, three patients, Day 26 vs Day 0): 7%
Collagen type IV levels reduced on average by (600 mg/day cohort, three patients, Day 26 vs Day 0): 26%
Collagen type IV levels reduced by (800 mg/day cohort, three patients, Day 26 vs Day 0): 29%
reduction in collagen type IV levels (another patient, 600 mg/day, between Day 0 and Day 26, P=0.632): no significant reduction
collagen type IV blood levels reduced (one patient with ampulla of vater carcinoma, 600 mg/day, between Day 0 and Day 26, P=0.006): > 50%
